# Measurements taken from the kinase profiling compilation of Christmann-Franck et al. (2016).
# Assays:
# [1] = molecular target: DAPK2 (human) (UniProt Q9UIK4); experiment: KINOMEscan competition binding; conditions: compound 10.0 µM
# [2] = molecular target: STK33 (human) (UniProt Q9BYT3); experiment: KINOMEscan competition binding; conditions: compound 10.0 µM
# [3] = system: EGFR (human), P00533 [P753S; 747-752 del]; experiment: KINOMEscan competition binding; conditions: compound 10.0 µM
# [4] = molecular target: TNK1 (human) (UniProt Q13470); experiment: KINOMEscan competition binding; conditions: compound 10.0 µM
# [5] = molecular target: PTK2B (human) (UniProt Q14289); experiment: KINOMEscan competition binding; conditions: compound 10.0 µM
# [6] = molecular target: MYLK (human) (UniProt Q15746); experiment: KINOMEscan competition binding; conditions: compound 10.0 µM
# [7] = molecular target: PLK1 (human) (UniProt P53350); experiment: KINOMEscan competition binding; conditions: compound 10.0 µM
# [8] = system: EGFR (human), P00533 [747-751 del / S ins]; experiment: KINOMEscan competition binding; conditions: compound 10.0 µM
# [9] = system: EGFR (human), P00533 [A750P; 747-749 del]; experiment: KINOMEscan competition binding; conditions: compound 10.0 µM
# [10] = molecular target: PTK2 (human) (UniProt Q05397); experiment: KINOMEscan competition binding; conditions: compound 10.0 µM
# [11] = molecular target: PLK3 (human) (UniProt Q9H4B4); experiment: KINOMEscan competition binding; conditions: compound 10.0 µM
# [12] = system: EGFR (human), P00533 [752-759 del]; experiment: KINOMEscan competition binding; conditions: compound 10.0 µM
# [13] = system: EGFR (human), P00533 [G719C; 746-750 del]; experiment: KINOMEscan competition binding; conditions: compound 10.0 µM
# [14] = molecular target: GAK (human) (UniProt O14976); experiment: KINOMEscan competition binding; conditions: compound 10.0 µM
# [15] = molecular target: TTK (human) (UniProt P33981); experiment: KINOMEscan competition binding
# [16] = molecular target: PLK4 (human) (UniProt O00444); experiment: KINOMEscan competition binding; conditions: compound 10.0 µM
# [17] = molecular target: TTK (human) (UniProt P33981); experiment: SelectScreen, TR FRET
# [18] = molecular target: HIPK1 (human) (UniProt Q86Z02); experiment: SelectScreen, TR FRET
# [19] = molecular target: HIPK2 (human) (UniProt Q9H2X6); experiment: SelectScreen, TR FRET
# [20] = molecular target: PIM1 (human) (UniProt P11309); experiment: SelectScreen, TR FRET
# [21] = molecular target: PIM2 (human) (UniProt Q9P1W9); experiment: SelectScreen, TR FRET
# [22] = molecular target: PIK3CG (human) (UniProt P48736); experiment: KINOMEscan competition binding; conditions: compound 10.0 µM
# [23] = molecular target: HIPK1 (human) (UniProt Q86Z02); experiment: KINOMEscan competition binding; conditions: compound 10.0 µM
# [24] = molecular target: MAPK15 (human) (UniProt Q8TD08); experiment: KINOMEscan competition binding; conditions: compound 10.0 µM
# [25] = molecular target: PIM1 (human) (UniProt P11309); experiment: KINOMEscan competition binding; conditions: compound 10.0 µM
# [26] = molecular target: RPS6KA4 KD2 (human) (UniProt O75676); experiment: KINOMEscan competition binding; conditions: compound 10.0 µM
# [27] = molecular target: PIM2 (human) (UniProt Q9P1W9); experiment: KINOMEscan competition binding; conditions: compound 10.0 µM
# [28] = molecular target: TGFBR2 (human) (UniProt P37173); experiment: KINOMEscan competition binding; conditions: compound 10.0 µM
# [29] = molecular target: PIM3 (human) (UniProt Q86V86); experiment: KINOMEscan competition binding; conditions: compound 10.0 µM
# [30] = molecular target: MINK1 (human) (UniProt Q8N4C8); experiment: KINOMEscan competition binding; conditions: compound 10.0 µM
# [31] = molecular target: CSNK2A2 (human) (UniProt P19784); experiment: KINOMEscan competition binding; conditions: compound 10.0 µM
# [32] = system: PIK3CA (human), P42336 [E545K]; experiment: KINOMEscan competition binding; conditions: compound 10.0 µM
# [33] = molecular target: CDK7 (human) (UniProt P50613); experiment: KINOMEscan competition binding; conditions: compound 10.0 µM
# [34] = molecular target: STK17A (human) (UniProt Q9UEE5); experiment: KINOMEscan competition binding; conditions: compound 10.0 µM
# [35] = molecular target: STK17B (human) (UniProt O94768); experiment: KINOMEscan competition binding; conditions: compound 10.0 µM
# PIM2 (human), sequence (Q9P1W9 whole entry, looked up): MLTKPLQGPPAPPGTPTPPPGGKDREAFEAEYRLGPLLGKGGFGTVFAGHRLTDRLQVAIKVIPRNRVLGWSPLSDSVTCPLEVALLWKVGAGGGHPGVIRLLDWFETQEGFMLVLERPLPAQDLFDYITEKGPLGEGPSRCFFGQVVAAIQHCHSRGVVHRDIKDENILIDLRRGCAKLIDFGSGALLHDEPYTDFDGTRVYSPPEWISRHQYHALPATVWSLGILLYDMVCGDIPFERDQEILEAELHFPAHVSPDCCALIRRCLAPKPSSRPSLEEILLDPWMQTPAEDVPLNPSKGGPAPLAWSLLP
# PIM1 (human), sequence (P11309 whole entry, looked up): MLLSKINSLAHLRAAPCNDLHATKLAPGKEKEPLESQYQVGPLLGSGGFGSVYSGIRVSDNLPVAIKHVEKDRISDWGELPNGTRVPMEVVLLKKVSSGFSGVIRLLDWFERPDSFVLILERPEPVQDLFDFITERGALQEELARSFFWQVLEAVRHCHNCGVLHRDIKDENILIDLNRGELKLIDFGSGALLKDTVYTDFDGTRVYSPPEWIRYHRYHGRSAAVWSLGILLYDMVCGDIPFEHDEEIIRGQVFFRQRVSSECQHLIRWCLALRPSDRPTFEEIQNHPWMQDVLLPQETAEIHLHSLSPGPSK
# TTK (human), sequence (P33981 whole entry, looked up): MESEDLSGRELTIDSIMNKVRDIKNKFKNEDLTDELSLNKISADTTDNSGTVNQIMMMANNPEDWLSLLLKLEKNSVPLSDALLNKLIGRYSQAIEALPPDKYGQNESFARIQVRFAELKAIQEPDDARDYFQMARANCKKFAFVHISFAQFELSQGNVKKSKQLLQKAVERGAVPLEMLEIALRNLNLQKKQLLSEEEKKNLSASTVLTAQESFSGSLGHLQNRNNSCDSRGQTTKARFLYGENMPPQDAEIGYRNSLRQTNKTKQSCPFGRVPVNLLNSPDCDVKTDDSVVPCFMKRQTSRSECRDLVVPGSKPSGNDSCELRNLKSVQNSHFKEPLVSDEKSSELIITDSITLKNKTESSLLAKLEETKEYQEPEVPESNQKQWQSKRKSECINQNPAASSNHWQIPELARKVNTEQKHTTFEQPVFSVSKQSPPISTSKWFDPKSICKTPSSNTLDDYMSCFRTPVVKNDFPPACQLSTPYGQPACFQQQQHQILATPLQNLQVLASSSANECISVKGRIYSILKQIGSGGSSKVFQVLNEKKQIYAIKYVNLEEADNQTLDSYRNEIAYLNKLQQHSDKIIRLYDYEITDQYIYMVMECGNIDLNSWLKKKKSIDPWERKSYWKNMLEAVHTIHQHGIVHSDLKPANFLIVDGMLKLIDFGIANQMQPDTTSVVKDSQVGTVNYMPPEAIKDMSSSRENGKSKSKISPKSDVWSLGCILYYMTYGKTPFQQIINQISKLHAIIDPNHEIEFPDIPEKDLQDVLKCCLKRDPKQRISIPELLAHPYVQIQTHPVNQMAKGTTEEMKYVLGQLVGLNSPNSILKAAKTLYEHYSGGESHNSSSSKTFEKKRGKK
# HIPK2 (human), sequence (Q9H2X6 whole entry, looked up): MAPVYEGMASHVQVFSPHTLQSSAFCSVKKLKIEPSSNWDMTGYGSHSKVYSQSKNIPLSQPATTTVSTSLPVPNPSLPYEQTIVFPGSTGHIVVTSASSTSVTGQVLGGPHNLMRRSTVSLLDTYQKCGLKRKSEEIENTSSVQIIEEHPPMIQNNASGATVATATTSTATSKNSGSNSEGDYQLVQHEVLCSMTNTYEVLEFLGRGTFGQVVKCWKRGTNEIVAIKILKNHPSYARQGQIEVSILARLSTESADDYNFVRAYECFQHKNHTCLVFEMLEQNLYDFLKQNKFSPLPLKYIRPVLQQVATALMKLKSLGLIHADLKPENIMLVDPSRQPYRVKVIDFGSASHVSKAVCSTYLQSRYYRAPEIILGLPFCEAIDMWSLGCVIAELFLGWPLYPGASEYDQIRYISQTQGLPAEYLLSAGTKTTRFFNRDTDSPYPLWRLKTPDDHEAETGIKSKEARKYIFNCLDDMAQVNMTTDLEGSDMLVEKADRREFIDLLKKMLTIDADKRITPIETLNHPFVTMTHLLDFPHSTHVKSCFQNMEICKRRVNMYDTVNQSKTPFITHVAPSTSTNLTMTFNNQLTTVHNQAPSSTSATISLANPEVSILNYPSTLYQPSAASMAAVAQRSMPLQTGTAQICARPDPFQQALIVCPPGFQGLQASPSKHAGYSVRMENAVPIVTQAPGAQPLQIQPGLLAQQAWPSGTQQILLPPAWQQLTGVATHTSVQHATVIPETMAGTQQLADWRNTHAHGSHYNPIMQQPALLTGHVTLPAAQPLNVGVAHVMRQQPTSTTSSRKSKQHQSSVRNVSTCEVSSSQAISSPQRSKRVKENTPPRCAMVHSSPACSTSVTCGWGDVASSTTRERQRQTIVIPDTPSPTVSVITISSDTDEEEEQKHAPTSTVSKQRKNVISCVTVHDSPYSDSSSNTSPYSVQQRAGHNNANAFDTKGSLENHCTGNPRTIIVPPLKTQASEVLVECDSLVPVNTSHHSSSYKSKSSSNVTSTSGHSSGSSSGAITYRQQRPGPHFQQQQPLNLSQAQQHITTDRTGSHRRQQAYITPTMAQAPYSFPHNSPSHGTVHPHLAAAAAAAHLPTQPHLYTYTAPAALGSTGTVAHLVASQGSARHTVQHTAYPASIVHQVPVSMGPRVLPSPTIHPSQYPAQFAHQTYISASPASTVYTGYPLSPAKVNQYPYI
# HIPK1 (human), sequence (Q86Z02 whole entry, looked up): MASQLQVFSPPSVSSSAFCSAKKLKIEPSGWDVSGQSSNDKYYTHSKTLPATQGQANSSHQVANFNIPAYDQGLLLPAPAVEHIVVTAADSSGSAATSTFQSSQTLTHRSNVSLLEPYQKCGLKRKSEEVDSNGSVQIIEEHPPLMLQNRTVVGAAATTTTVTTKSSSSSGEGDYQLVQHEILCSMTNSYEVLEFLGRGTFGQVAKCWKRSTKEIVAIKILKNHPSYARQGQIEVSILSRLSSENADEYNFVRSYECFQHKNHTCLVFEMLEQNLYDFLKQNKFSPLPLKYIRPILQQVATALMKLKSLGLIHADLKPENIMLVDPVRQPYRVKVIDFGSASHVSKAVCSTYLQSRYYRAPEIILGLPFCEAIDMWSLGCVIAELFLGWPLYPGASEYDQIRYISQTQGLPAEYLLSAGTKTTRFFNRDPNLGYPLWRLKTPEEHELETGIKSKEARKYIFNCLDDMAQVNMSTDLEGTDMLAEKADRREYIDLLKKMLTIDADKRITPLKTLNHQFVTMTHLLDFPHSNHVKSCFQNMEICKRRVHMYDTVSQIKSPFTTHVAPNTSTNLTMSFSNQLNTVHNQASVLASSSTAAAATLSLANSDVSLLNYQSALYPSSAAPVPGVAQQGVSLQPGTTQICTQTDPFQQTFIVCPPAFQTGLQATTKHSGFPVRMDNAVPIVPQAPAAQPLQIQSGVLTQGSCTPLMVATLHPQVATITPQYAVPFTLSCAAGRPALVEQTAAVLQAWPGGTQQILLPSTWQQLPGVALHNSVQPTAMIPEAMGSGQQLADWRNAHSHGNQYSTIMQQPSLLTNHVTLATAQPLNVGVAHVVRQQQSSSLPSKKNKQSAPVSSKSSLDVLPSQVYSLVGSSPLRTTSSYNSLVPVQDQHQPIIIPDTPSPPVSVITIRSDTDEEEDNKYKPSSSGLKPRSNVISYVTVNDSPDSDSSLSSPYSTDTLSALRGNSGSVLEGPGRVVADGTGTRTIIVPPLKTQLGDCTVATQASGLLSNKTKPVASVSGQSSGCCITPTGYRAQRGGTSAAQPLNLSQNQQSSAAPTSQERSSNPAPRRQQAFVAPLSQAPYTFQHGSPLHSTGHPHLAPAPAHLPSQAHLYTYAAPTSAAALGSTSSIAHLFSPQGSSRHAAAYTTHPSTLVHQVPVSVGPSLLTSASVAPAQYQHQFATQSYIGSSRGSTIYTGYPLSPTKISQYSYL
# PIK3CA (human), P42336 [E545K], sequence (P42336 whole entry E545K, looked up): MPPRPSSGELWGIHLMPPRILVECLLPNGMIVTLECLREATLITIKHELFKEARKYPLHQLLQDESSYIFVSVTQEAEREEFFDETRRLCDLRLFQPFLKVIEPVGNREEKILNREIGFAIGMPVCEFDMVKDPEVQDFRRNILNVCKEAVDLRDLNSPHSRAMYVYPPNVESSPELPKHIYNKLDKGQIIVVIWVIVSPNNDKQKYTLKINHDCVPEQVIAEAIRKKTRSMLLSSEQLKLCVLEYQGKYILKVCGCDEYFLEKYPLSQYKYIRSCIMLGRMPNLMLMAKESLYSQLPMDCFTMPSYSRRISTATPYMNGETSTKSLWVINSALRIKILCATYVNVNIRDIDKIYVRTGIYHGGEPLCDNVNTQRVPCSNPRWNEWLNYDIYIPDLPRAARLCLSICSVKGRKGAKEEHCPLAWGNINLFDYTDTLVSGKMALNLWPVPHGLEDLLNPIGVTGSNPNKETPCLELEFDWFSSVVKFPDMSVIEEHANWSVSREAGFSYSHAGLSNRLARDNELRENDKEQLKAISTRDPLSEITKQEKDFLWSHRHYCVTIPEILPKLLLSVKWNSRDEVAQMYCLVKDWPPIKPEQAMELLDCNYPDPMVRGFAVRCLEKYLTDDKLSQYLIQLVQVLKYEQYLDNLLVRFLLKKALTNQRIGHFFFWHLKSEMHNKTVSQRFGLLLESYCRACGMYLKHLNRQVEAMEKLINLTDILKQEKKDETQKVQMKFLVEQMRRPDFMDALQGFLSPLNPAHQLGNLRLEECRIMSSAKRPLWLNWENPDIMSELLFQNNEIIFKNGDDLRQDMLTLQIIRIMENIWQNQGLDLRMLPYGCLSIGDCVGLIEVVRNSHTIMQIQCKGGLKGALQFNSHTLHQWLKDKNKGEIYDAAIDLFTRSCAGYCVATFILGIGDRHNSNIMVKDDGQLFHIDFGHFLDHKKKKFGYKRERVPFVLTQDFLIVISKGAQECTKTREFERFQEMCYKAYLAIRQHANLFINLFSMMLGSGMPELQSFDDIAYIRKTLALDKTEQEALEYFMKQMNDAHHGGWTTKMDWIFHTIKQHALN
smiles,measurement,setting,value
COc1cc(N2CCC(O)CC2)ccc1Nc1ncc2c(n1)N(C1CCCC1)CCC(=O)N2C,"kinase still bound, per cent of control",[1],31%
same,"kinase still bound, per cent of control",[2],11%
same,"kinase still bound, per cent of control",[3],33%
same,"kinase still bound, per cent of control",[4],26%
same,"kinase still bound, per cent of control",[5],18%
same,"kinase still bound, per cent of control",[6],25%
same,"kinase still bound, per cent of control",[7],3%
same,"kinase still bound, per cent of control",[8],29%
same,"kinase still bound, per cent of control",[9],22%
same,"kinase still bound, per cent of control",[10],6.8%
same,"kinase still bound, per cent of control",[11],0%
same,"kinase still bound, per cent of control",[12],28%
same,"kinase still bound, per cent of control",[13],32%
same,"kinase still bound, per cent of control",[14],1.8%
same,Kd,[15],28.4 nM
same,"kinase still bound, per cent of control",[15]; compound 10.0 µM,3.2%
same,"kinase still bound, per cent of control",[16],8.3%
same,IC50,[17],342 nM
Nc1ccc(-c2cc(/C=C3\SC(=O)NC3=O)c[nH]c2=O)cn1,IC50,[18],500 nM
same,IC50,[19],351 nM
CS(=O)(=O)Nc1ccc(-c2cc(/C=C3\SC(=O)NC3=O)c[nH]c2=O)cc1,IC50,[18],527 nM
same,IC50,[20],151 nM
same,IC50,[21],214 nM
same,IC50,[19],258 nM
N=C1NC(=O)/C(=C/c2c[nH]c(=O)c(-c3cccc(N)c3)c2)S1,IC50,[18],317 nM
same,IC50,[19],163 nM
O=C1NC(=O)/C(=C/c2c[nH]c(=O)c(-c3cnc4ccccc4c3)c2)S1,IC50,[18],228 nM
same,IC50,[19],178 nM
CS(=O)(=O)Nc1ccc(-c2ccc(/C=C3\SC(=N)NC3=O)o2)c(O)c1,"kinase still bound, per cent of control",[22],1.6%
same,"kinase still bound, per cent of control",[23],22%
same,"kinase still bound, per cent of control",[24],0.55%
same,"kinase still bound, per cent of control",[25],3.3%
same,"kinase still bound, per cent of control",[26],30%
same,"kinase still bound, per cent of control",[27],0.45%
same,"kinase still bound, per cent of control",[28],32%
same,"kinase still bound, per cent of control",[29],4.8%
same,"kinase still bound, per cent of control",[30],30%
same,"kinase still bound, per cent of control",[31],22%
same,"kinase still bound, per cent of control",[32],32%
same,"kinase still bound, per cent of control",[33],0.9%
same,"kinase still bound, per cent of control",[34],25%
same,"kinase still bound, per cent of control",[35],7.7%
same,IC50,[20],768 nM
same,IC50,[21],1920 nM
O=C1NC(=O)/C(=C/c2c[nH]c(=O)c(-c3ccc(N4CCNCC4)nc3)c2)N1,IC50,[18],> 10000 nM
same,IC50,[19],> 10000 nM
O=C1NC(=O)/C(=C/c2c[nH]c(=O)c(-c3ccc(N4CCNCC4)cc3)c2)S1,IC50,[18],52 nM
same,IC50,[19],45 nM
O=C1NC(=O)/C(=C/c2c[nH]c(=O)c(-c3ccc(N4CCC(N5CCCC5)CC4)nc3)c2)S1,IC50,[18],6530 nM
same,IC50,[19],4900 nM
O=C1NC(=O)/C(=C/c2c[nH]c(=O)c(-c3cncc4ccccc34)c2)S1,IC50,[18],> 10000 nM
same,IC50,[19],> 10000 nM
Nc1cccc(-c2cc(/C=C3\NC(=O)NC3=O)c[nH]c2=O)c1,IC50,[18],> 10000 nM
same,IC50,[19],> 10000 nM
